# Test results: patent US20230277569A1, “Compositions and Methods for Treating, Ameliorating and/or Preventing Cancer and Kits for the Same” (priority 2022, published 2023)
# Several values for one entry are separate records, joined by “and”; a condition that tells them apart may be missing. Equal entries are not always repeated. Where two headings read alike, the source gives them in different places.
# Legend:
# [1] = Toxicity in beagle dogs, IV infusion for 36 d; type: in vivo; conditions: beagle, dog, in vivo, iv, dogs; for AUC(0-t): read-out: AUC0-24
# Procedure: Eighteen male and female (5-6 mo old) purebred beagle dogs (Cumberland, Va.) were acclimated for 47 d (20 to 26° C., relative humidity 30-70%, 10 or greater air changes/h, and a 12-h light/dark cycle) prior to study initiation. Animals were given water ad libitum and Certified Canine Diet #5007 (PMI Nutrition International Certified LabDiet®) for 4 to 5 h each day. At study initiation, animal body weights ranged from 8.6 to 11.5 kg for males and 6.0 to 9.4 kg for females. At least 1 week prior to initiation of dosing, animals were fasted overnight, anesthetized, and a catheter attached to a subcutaneous vascular access port was surgically implanted into a jugular vein. Animals were acclimated to infusion jackets prior to catheter implantation surgery. Animals were infused with sterile saline at a dose rate of 5 mL/h when the vascular access ports were accessed and when animals were connected to the infusion system (except when dosed with the test or vehicle control article). The patency of each catheter was checked as needed. Prednisolone tablets were administered orally at 2 mg/kg the night prior to dosing. Diphenhydramine (5 mg/kg; IM injection 0.1 mL/kg, 50 mg/mL) was administered prior to dosing and post the start of infusion (d 1 only). Male and female dogs received dose levels of Gamitrinib of 1.25, 3.33 and 6.25 mg/kg/dose formulated as indicated above during a 1 h infusion on d 1, 8, 11, 15, 18, 22, 25, 29, 32, and 36 at a volume of 2 mL/kg. The vehicle control was as above. […] Dosing was stopped, and 23 of 24 animals were administered additional diphenhydramine, 11 were administered Flunixin meglumine and buprenorphine, and 6 were administered acepromazine. Symptoms subsided in all animals after completion of these interventions. As a result of these observations, the polysorbate levels, which were increased from 0.025% (w/v) to 0.125% (w/v) to minimize precipitation, were returned to the original concentrations; 2 mg/kg prednisone was administered orally the night prior to dosing; and the diphenhydramine pretreatment dose was updated to 5 mg/kg 15 to 30 min prior to dosing. Detailed observations were conducted for each animal up to seven times during the predose phase, prior to dosing on d 1, 8, 15, 22, 29, and 36 of the dosing phase, and on d 1, 7, and 14 of the recovery phase. Blood samples (1 mL) were collected via the cephalic vein 5, 15, and 30 min and 1, 4, 8, and 24 h post the end of infusion on d 8 and 36 of the dosing phase. Formalin-fixed and paraffin-embedded tissue samples collected at the end of the study (d 39) were processed for histologic examination.
# Human Kv1.5 = Human Kv1.5 (Homo sapiens, UniProt P22460); experiment: Ion channel screening, Kv1.5; type: cell-based; conditions: n=15, read-out: inhibition of Kv1.5 currents
# Excerpt: The parameters measured were the maximum inward current evoked on stepping to −20 mV from the 1st and 26th pulse. Human Kv4.3/KChIP2 currents were evoked from a holding potential of −80 mV by a series of four 500 msec pulses to 0 mV using a 1000 msec interval between pulses. The parameter measured was the amplitude of the outward current 50 msec after the onset of the 4th voltage step to 0 mV. Human Cav1.2 currents were evoked by 2 pulses to −10 mV from a holding potential of −100 mV. The parameters measured were the maximum inward currents evoked on stepping to −10 mV from the holding potential of −100 mV for the 1st and 2nd pulse. Human Kv1.5 currents were evoked by a single pulse from a holding potential of −80 mV to a potential of 0 mV for 4 sec before returning to −80 mV. The parameters measured were the maximum amplitude of outward currents evoked at the beginning of the voltage pulse and at the end of the voltage step from −80 mV to 0 mV. Human KCNQ1/minK currents were evoked by a single pulse delivered from a holding potential of −80 mV to +60 mV for 4 sec before returning to −80 mV. The parameter measured was the maximum outward current evoked on stepping to +60 mV from the holding potential of −80 mV. hERG currents were evoked by a three-pulse protocol where voltage was first stepped to +40 mV for two sec from a holding potential of −80 mV to inactivate hERG channels. […]
# [2] = Gamitrinib pharmacokinetics (PK) in rat plasma, single IV dose; type: in vivo, Sprague-Dawley rats; conditions: for 17-AG plasma concentration after IV Gamitrinib: Gamitrinib 5 mg/kg IV
# Procedure: Sprague-Dawley rats (n=3) were administered a single intravenous (IV) dose of 1 mL Gamitrinib (5 mg/kg) formulated as described above without added microfluidization. Blood samples were collected via lateral tail vein using K2EDTA as an anticoagulant at 0.083, 0.25, 0.5, 1, 2, 4 and 24 h post-dose, chilled on ice and centrifuged at 5000 rpm for 10 min. Aliquots (0.2 mL) of each plasma sample were stored frozen at −20° C. For analysis, 50 μL aliquots of study samples were mixed with 50 μL of ACN/H2O (50:50), extracted by protein precipitation using ACN containing the internal standard Gamitrinib-d15 (100 ng/mL), and aliquots of supernatant were mixed with deionized water for Gamitrinib determination. Batch samples under analysis included a calibration curve, a matrix blank (blank rat plasma), a reagent blank, a control zero (blank rat plasma spiked with internal standard), and duplicate QC samples at 3 concentration levels (low, medium, and high) in addition to the study samples. Within each batch, the study samples were bracketed by calibration standards or QC samples. The lowest calibration standard served to evaluate system suitability at the beginning of each batch. […] Overall, the concentration of Gamitrinib was measured in 21 rat plasma samples in 1 analytical batch using LC-MS/MS data acquisition on a Shimadzu Nexera LC system coupled with an AB Sciex Triple Quad 5500 mass spectrometer. Chromatograms were integrated using Analyst 1.6.2 software. A weighted (1/x^2, x=concentration) linear regression was used to generate the calibration curve for Gamitrinib. […] The mean, standard deviation, precision, accuracy, and assay variability were calculated using Microsoft Excel.
# [3] = Plasma protein binding (rapid equilibrium dialysis); type: in vitro ADME, human; conditions: human, plasma, 4-h incubation, 37° C.
# Procedure: (§1) Spiked plasma samples were prepared by adding 12 μL of each working solution into 1.2 mL of blank plasma to a final concentration of 2 μg/mL. Plasma protein binding incubations were performed in triplicate by adding 500 μL of PBS into each white chamber and 300 μL of spiked plasma into each red chamber of the RED device. The device was covered with a sealing tape and placed on an orbital shaker at a shaking speed of 100 rpm at 37° C. in 5% CO2. After a 4-h incubation, a 40 μL plasma sample was transferred from each red chamber to the wells of a 96-well plate containing 160 μL of PBS. A 160 μL PBS aliquot from each white chamber was transferred to the wells of the same plate containing 40 μL of blank plasma. After matching the matrix for all samples, 400 μL aliquots of stop solution were added to each well of the 96-well sample plate. […] A 100 μL aliquot of supernatant from each well was transferred to a new 96-well sample plate and further mixed with 100 μL of Milli-Q (ultrapure) water before analysis by liquid chromatography—tandem mass spectrometry (LC-MS/MS).
# plasma proteins = experiment: as above; type: in vitro ADME, human; conditions: 2 μg/mL, 4-h incubation, 37° C.
# Procedure: as §1
# Human Kir2.1 = Human Kir2.1 (Homo sapiens, UniProt P63252); experiment: Ion channel screening, Kir2.1; type: cell-based; conditions: n=15, pulse 10, read-out: inhibition of Kir2.1 currents
# Excerpt: The parameter measured was the maximum outward current evoked on stepping to +60 mV from the holding potential of −80 mV. hERG currents were evoked by a three-pulse protocol where voltage was first stepped to +40 mV for two sec from a holding potential of −80 mV to inactivate hERG channels. The voltage is then stepped back to −50 mV for two sec to evoke a tail current prior to returning to the holding potential for 1 sec. The parameter measured was the amplitude of the 3rd pulse tail current upon stepping back to −50 mV after the step to +40 mV. Human HCN4 currents were evoked by a single pulse from a holding potential of −30 mV to a potential of −110 mV for 4 sec prior to returning to −30 mV. The parameter measured was the maximum inward current evoked upon stepping to −110 mV from the holding potential of −30 mV. Human Kir2.1 currents were evoked from a holding potential of −20 mV by a series of 10 500 msec pulses to −120 mV using a 200 msec interval between pulses. The parameters measured were the amplitudes of the instantaneous inward currents evoked on stepping to −120 mV for the 1st pulse and the maximum inward current at the end of the 10th hyperpolarizing pulse. For all experiments, data were filtered for seal quality, seal drop, and current amplitude.
# [4] = 3.33 mg/kg/dose (NOAEL), d 36 of dosing, both sexes
# [5] = 6.25 mg/kg/dose (HNSTD), d 36, both sexes
# [6] = 5 mg/kg IV, individual animals Rat 1-3
# Sequence of Human Kir2.1 (P63252 whole entry): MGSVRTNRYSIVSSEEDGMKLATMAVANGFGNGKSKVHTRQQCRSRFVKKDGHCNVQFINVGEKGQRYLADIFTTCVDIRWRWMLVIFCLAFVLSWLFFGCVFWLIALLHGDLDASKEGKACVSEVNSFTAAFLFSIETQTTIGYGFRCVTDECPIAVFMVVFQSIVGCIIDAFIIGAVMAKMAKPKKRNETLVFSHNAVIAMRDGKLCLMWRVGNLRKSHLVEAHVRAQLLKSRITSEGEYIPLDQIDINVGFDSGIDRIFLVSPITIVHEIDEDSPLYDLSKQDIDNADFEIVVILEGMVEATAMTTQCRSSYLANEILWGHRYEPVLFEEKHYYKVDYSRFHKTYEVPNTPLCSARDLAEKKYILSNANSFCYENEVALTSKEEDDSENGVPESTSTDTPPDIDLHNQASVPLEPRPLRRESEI
# Sequence of Human Kv1.5 (P22460 whole entry): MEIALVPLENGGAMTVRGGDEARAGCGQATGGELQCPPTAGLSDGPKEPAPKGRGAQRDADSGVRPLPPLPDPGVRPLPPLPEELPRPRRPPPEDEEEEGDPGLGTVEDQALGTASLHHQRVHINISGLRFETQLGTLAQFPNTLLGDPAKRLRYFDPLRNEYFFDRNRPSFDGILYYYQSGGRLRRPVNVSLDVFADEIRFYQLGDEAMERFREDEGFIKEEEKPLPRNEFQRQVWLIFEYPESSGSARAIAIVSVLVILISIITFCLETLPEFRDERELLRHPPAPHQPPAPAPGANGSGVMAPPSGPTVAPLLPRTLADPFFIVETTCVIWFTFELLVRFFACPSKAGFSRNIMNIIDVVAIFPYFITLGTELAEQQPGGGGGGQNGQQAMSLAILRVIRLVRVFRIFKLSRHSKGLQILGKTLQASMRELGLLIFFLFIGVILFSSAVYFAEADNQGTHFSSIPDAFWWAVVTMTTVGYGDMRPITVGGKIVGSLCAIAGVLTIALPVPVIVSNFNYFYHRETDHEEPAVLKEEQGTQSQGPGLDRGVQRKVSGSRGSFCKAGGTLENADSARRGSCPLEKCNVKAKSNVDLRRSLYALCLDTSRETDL
smiles,measurement,setting,value
"CO[C@H]1/C=C\C=C(/C)C(=O)NC2=CC(=O)C(NCCCCCC[P+](c3ccccc3)(c3ccccc3)c3ccccc3)=C(C[C@@H](C)C[C@H](OC)[C@H](O)[C@@H](C)/C=C(\C)[C@@H]1OC(N)=O)C2=O [Gamitrinib, 17-Demethoxy-17-((6-(triphenylphosphonio)hexyl)amino)geldanamycin]",Cmax,[1]; [4],560 ± 404 ng/mL
same,AUC(0-t),[1]; [4],1740 ± 713 ng·h/mL
same,Cmax,[1]; [5],1260 ± 556 ng/mL
same,AUC(0-t),[1]; [5],3290 ± 1090 ng·h/mL
same,inhibition at 10 µM,Human Kv1.5,6.6 ± 1.3%
same,t1/2,"[2]; 5 mg/kg IV, Sprague-Dawley rats, individual animals Rat 1-3",11.107 h and 14.022 h
same,t1/2 (terminal phase half-life),"[2]; 5 mg/kg IV, Sprague-Dawley rats, mean, n=3",12.25 ± 1.55 h
same,Gamitrinib plasma concentration,"[2]; 5 mg/kg IV, 5 min, animals 1-3",674.432 ng/mL and 622.199 ng/mL
same,Gamitrinib plasma concentration,"[2]; 5 mg/kg IV, 15 min, animals 1-3",128.663 ng/mL and 180.951 ng/mL
same,Gamitrinib plasma concentration,"[2]; 5 mg/kg IV, 30 min, animals 1-3",67.204 ng/mL and 106.381 ng/mL
same,Gamitrinib plasma concentration,"[2]; 5 mg/kg IV, 60 min, animals 1-3",65.903 ng/mL and 55.991 ng/mL
same,Gamitrinib plasma concentration,"[2]; 5 mg/kg IV, 120 min, animals 1-3",43.125 ng/mL and 29.914 ng/mL
same,Gamitrinib plasma concentration,"[2]; 5 mg/kg IV, 240 min, animals 1-3",34.776 ng/mL and 28.905 ng/mL
same,Gamitrinib plasma concentration,"[2]; 5 mg/kg IV, 1440 min, animals 1-3",10.511 ng/mL and 10.365 ng/mL
same,AUCINF,[2]; [6],957.472 ng·h/mL and 918.784 ng·h/mL
same,AUClast,[2]; [6],789.045 ng·h/mL and 709.112 ng·h/mL
same,CL,[2]; [6],87.035 mL/min/kg and 90.700 mL/min/kg
same,Cmax,[2]; [6],829.668 ng/mL and 1544.041 ng/mL
same,MRT,[2]; [6],5.411 h and 5.524 h
same,Vss,[2]; [6],60.052 L/kg and 78.131 L/kg
same,Vz,[2]; [6],83.678 L/kg and 110.085 L/kg
same,AUClast (AUC0-t),"[2]; 5 mg/kg IV, mean, n=3",783.199 ng·h/mL
same,CL (clearance),"[2]; 5 mg/kg IV, mean, n=3",85.656 ± 5.856 mL/min/kg and 85.65 ± 5.85 mL/min/kg
same,17-AG plasma concentration after IV Gamitrinib,"[2]; 30 min, animals 1-3",BLOQ
same,17-AG plasma concentration after IV Gamitrinib,"[2]; 60 min, animals 1-3",BLOQ
same,17-AG plasma concentration after IV Gamitrinib,"[2]; 120 min, animals 1-3",BLOQ
same,17-AG plasma concentration after IV Gamitrinib,"[2]; 240 min, animals 1-3",BLOQ
same,17-AG plasma concentration after IV Gamitrinib,"[2]; 1440 min, animals 1-3",BLOQ
same,concentration at 5 min,"[2]; Sprague-Dawley, rat, plasma, intravenous, 5 mg/kg, 5 mg/kg IV, 5 min, animals 1-3",526 ng/mL
same,concentration at 15 min,"[2]; Sprague-Dawley, rat, plasma, intravenous, 5 mg/kg, 5 mg/kg IV, 15 min, animals 1-3",212 ng/mL
same,concentration at 30 min,"[2]; Sprague-Dawley, rat, plasma, intravenous, 5 mg/kg, 5 mg/kg IV, 30 min, animals 1-3",114 ng/mL
same,concentration at 60 min,"[2]; Sprague-Dawley, rat, plasma, intravenous, 5 mg/kg, 5 mg/kg IV, 60 min, animals 1-3",71.4 ng/mL
same,concentration at 120 min,"[2]; Sprague-Dawley, rat, plasma, intravenous, 5 mg/kg, 5 mg/kg IV, 120 min, animals 1-3",46.7 ng/mL
same,concentration at 240 min,"[2]; Sprague-Dawley, rat, plasma, intravenous, 5 mg/kg, 5 mg/kg IV, 240 min, animals 1-3",36.8 ng/mL
same,concentration at 1440 min,"[2]; Sprague-Dawley, rat, plasma, intravenous, 5 mg/kg, 5 mg/kg IV, 1440 min, animals 1-3",11.9 ng/mL
same,half-life,"[2]; Sprague-Dawley, rat, plasma, iv, 5 mg/kg, 5 mg/kg IV, Sprague-Dawley rats, individual animals Rat 1-3, read-out: t1/2 (converted)",11.6 h
same,half-life,"[2]; Sprague-Dawley, rat, plasma, iv, 5 mg/kg, 5 mg/kg IV, Sprague-Dawley rats, mean, n=3, read-out: t1/2 (terminal phase half-life) (converted)",12.2 ± 1.55 h
same,AUC(0-inf),"[2]; Sprague-Dawley, rat, plasma, iv, 5 mg/kg, 5 mg/kg IV, individual animals Rat 1-3",1050 ng·h/mL
same,AUC(0-t),"[2]; Sprague-Dawley, rat, plasma, iv, 5 mg/kg, 5 mg/kg IV, individual animals Rat 1-3, read-out: AUClast",851 ng·h/mL
same,clearance,"[2]; Sprague-Dawley, rat, plasma, iv, 5 mg/kg, 5 mg/kg IV, individual animals Rat 1-3, read-out: CL",79.2 mL/min/kg
same,Cmax,"[2]; Sprague-Dawley, rat, plasma, iv, 5 mg/kg, 5 mg/kg IV, individual animals Rat 1-3, read-out: Cmax",1150 ng/mL
same,MRT,"[2]; Sprague-Dawley, rat, plasma, iv, 5 mg/kg, 5 mg/kg IV, individual animals Rat 1-3, read-out: MRT",5.54 h
same,Vd,"[2]; Sprague-Dawley, rat, plasma, iv, 5 mg/kg, 5 mg/kg IV, individual animals Rat 1-3, read-out: Vss",58.2 L/kg
same,Vd,"[2]; Sprague-Dawley, rat, plasma, iv, 5 mg/kg, 5 mg/kg IV, individual animals Rat 1-3, read-out: Vz",79.7 L/kg
same,AUC(0-inf),"[2]; Sprague-Dawley, rat, plasma, iv, 5 mg/kg, 5 mg/kg IV, mean, n=3",976 ng·h/mL
same,AUC(0-t),"[2]; Sprague-Dawley, rat, plasma, iv, 5 mg/kg, 5 mg/kg IV, mean, n=3, read-out: AUClast (AUC0-t)",783 ± 71.3 ng·h/mL
same,clearance,"[2]; Sprague-Dawley, rat, plasma, iv, 5 mg/kg, 5 mg/kg IV, mean, n=3, read-out: CL (clearance)",85.6 ± 5.8 mL/min/kg
same,Cmax,"[2]; Sprague-Dawley, rat, plasma, iv, 5 mg/kg, 5 mg/kg IV, mean, n=3, read-out: Cmax",1180 ng/mL
same,MRT,"[2]; Sprague-Dawley, rat, plasma, iv, 5 mg/kg, 5 mg/kg IV, mean, n=3, read-out: MRT",5.49 h
same,Vd,"[2]; Sprague-Dawley, rat, plasma, iv, 5 mg/kg, 5 mg/kg IV, mean, n=3, read-out: Vss",65.5 L/kg
same,Vd,"[2]; Sprague-Dawley, rat, plasma, iv, 5 mg/kg, 5 mg/kg IV, mean, n=3, read-out: Vz",91.2 L/kg
same,generation of 17-AG by Gamitrinib metabolism in rats,[2]; in words,did not generate detectable levels
same,"fraction unbound at 4 h, 2 μg/mL",[3]; read-out: average free fraction,0.007 ± 0.0007
same,"fraction unbound at 4 h, 2 μg/mL",[3]; read-out: bound to plasma proteins,< 0.01
same,bound to plasma proteins,plasma proteins,99.3±0.07%
same,inhibition at 10 µM,Human Kir2.1,-7.3 ± 3.4%
